# What was measured:
# [1] = molecular target: T1, α7-subtype of nicotinic receptors (Rattus norvegicus, UniProt Q05941); test: In vitro inhibition of 3H-α-bungarotoxine binding in rat brain; conditions: rat cerebral cortex homogenate, 3H-α-bungarotoxine 2 nM
# T1 construct: Cerebral cortices from male Wistar rats (150-250 g) are homogenised; from tissue; host or cells: rat cerebral cortex membrane homogenate
# T1 sequence (Q05941 23-502): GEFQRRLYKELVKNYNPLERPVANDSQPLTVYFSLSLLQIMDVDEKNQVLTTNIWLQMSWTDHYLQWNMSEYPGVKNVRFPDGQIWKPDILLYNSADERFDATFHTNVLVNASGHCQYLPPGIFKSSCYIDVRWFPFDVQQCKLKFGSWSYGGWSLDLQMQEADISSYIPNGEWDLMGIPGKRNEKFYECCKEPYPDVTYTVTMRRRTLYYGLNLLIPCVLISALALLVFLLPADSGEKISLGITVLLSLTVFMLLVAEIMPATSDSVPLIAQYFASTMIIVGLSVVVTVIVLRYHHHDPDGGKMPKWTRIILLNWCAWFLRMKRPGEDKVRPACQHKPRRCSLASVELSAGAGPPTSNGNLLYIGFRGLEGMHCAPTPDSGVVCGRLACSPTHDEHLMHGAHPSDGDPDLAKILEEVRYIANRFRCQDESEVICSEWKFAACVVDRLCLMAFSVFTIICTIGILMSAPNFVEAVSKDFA
SMILES,melting point [°C],IC50 [1] [nM]
CN1C2CCCC1CN(C(=O)c1ccc(-c3ccc(N)cc3)o1)C2 [Compound B1],147 to 149,420
CC(=O)Nc1ccc(-c2ccc(C(=O)N3CC4CCCC(C3)N4C)o2)cc1.O=C(O)/C=C/C(=O)O,197 to 229,

# Now from value to compound, other results behind:
melting point [°C],SMILES,IC50 [1] [nM]
154 to 161,CCNC(=O)Nc1ccc(-c2ccc(C(=O)N3CC4CCCC(C3)N4C)o2)cc1.O=C(O)/C=C/C(=O)O,
246 to 252,CN1C2CCCC1CN(C(=O)c1ccc(-c3ccc(NC(=O)c4ccccc4)cc3)o1)C2.O=C(O)/C=C/C(=O)O,
263,CN1C2CCCC1CN(C(=O)c1ccc(-c3ccc([N+](=O)[O-])cc3)o1)C2.Cl,

# Reference: US7855208B2, “3, 9-diazabicyclo(3.3.1)non-3-yl-aryl methanone derivatives as nicotinic acetylcholine receptor agonists” (NeuroSearch A/S, priority 2006, dated 2010)
